# Test results from patent US20110301245A1, “(R)-2-(3,4-DIMETHOXYPHENOL)-2-ISOPROPYL-6-AZAHEPTANITRIL FORMULAITONS, ANDTHE USE OF SUCH FORMULATIONS IN THE TREATMENT OF CONDITIONS MEDIATED BY THE SEROTONIN TRANSPORTER” (AGI THERAPEUTICS, PLC, priority 2010, published 2011).
# Values joined by “and” are separate entries in the source; they are usually repeats but may differ in a detail not shown here. Equal entries are not always repeated. Where two headings read alike, the source gives them in different places.
# Legend:
# [1] = Terminal plasma drug concentrations by HPLC in the PAH study; assay type: in vivo; conditions: rat, 5 mg/kg IP daily for 21 days
# Protocol: (§1) All animals were then housed (allowed food and water ad lib). The animals were anaesthetized 21 days after injection, and pulmonary arterial pressure was measured and expressed as mean pulmonary arterial pressure (mPAP mmHg). A terminal sample was also obtained and used to obtain terminal drug concentrations. Following exsanguination, cardiac tissues were excised and used to assess the wet weight of the right cardiac ventricle.
# [2] = biological target: T1, 5-HT uptake (rat brain synaptosomes) (Rattus norvegicus, UniProt P31652); assay: In vitro 5-HT uptake assay using rat brain synaptosomes; assay type: biochemical; conditions: for % of Control Values, 1st / % of Control Values, 2nd / % of Control Values, Mean: Table 2-2
# T1 construct: from tissue; host or cells: rat brain synaptosomes
# Protocol: Briefly, the uptake assay was performed using rat brain synaptosomes according to the method generally described in Perovic and Muller, Arzneim-Forsch. […] For its disclosure of the above-noted assay, Perovic and Muller is incorporated herein by reference in its entirety.
# The results are expressed as a percent of control specific activity ((measured specific activity/control specific activity)×100) obtained in the presence of (R)-2-(3,4-dimethoxyphenol)-2-isopropyl-6-azaheptanitril.
# (§2) The IC50 values (concentration causing a half-maximal inhibition of control specific activity) and Hill coefficients (nH) were determined by non-linear regression analysis of the inhibition curves generated with mean replicate values using Hill equation curve fitting (Y=D+[(A−D)/(1+(C/C50)^nH)], where Y=specific activity, D=minimum specific activity, A=maximum specific activity, C=compound concentration, C50=IC50 and nH=slope factor).
# [3] = tested on: other receptors tested, including calcium channels; assay: Single high concentration test on other receptors (data not included); assay type: binding; conditions: single high concentration 1×10^−5M
# [4] = tested on: male wistar rats with Monocrotaline-induced PAH; assay: Inhibition of PAH development, monocrotaline-induced pulmonary arterial hypertension; assay type: in vivo, rat; conditions: Mct 60 mg/kg sc, 5 mg/kg IP daily for 21 days
# Protocol: Experimental pulmonary arterial hypertension (PAH) was induced in male wistar rats (Charles River Laboratories) weighing between 250 and 300 g by subcutaneous injection of 60 mg/kg Monocrotaline (Met) on Day 1. The Mct (Sigma Aldrich) was dissolved in 1N HCl at a concentration of 300 mg/ml as per M. Rey et al., Current Protocols in Pharmacology, 5.56.1-5.56.11, September 2009, which document is incorporated by reference herein in its entirety. Mct was then neutralized by adding 1N NaOH and diluted with sterile distilled water to a final concentration of 20 mg/ml. An injection volume of 3 ml/kg was used to achieve the 60 mg/kg dose.
# A total of 44 rats were injected as follows: 15 rats were injected subcutaneously with Mct (untreated PAH controls), 15 rats were injected subcutaneously with Mct followed by daily IP injection with 5 mg/kg (R)-2-(3,4-dimethoxyphenol)-2-isopropyl-6-azaheptanitril for 21 days (R-D617 treated group), and 14 rats were injected subcutaneously with neutralized solvent having no Mct (non-PAH controls (sham)).
# as §1, with “Following exsanguination, cardiac tissues were excised and used to assess the wet weight of the right cardiac ventricle.” left out
# 5-HT transporter (h) = biological target: T2, 5-HT transporter (h) (Homo sapiens, UniProt P31645); assay: 5-HT transporter (h) antagonist radioligand binding assay, human recombinant CHO cells, [3H]imipramine
# T2 construct: expressed in transfected cells; host or cells: CHO cells
# Source text: For its discussion of the assay method, Tatsumi et al. is incorporated herein by reference in its entirety.
# The specific ligand binding to the receptors is defined as the difference between the total binding and the nonspecific binding determined in the presence of an excess of unlabelled ligand.
# The results are expressed as a percent of control specific binding ((measured specific binding/control specific binding)×100) and as a percent inhibition of control specific binding (100−((measured specific binding/control specific binding)×100)) obtained in the presence of (R)-2-(3,4-dimethoxyphenol)-2-isopropyl-6-azaheptanitril.
# as §2, with “specific binding)” for “specific activity)”, “the competition” for “the inhibition”, “Y=specific binding,” for “Y=specific activity,”, “specific binding,” for “specific activity,”, “concentration, C50=IC50,” for “concentration, C50=IC50”
# The inhibition constants (Ki) were calculated using the Cheng Prusoff equation (Ki=IC50/(1+(L/KD)), where L=concentration of radioligand in the assay, and KD=affinity of the radioligand for the receptor).
# CYP = conditions: prior non-clinical studies; cited from earlier work
# [5] = % of the potency of verapamil; cited from earlier work
# p-glycoprotein = p-glycoprotein (Homo sapiens, UniProt P08183); conditions: prior non-clinical studies; cited from earlier work
# HERG = HERG (Homo sapiens, UniProt Q12809); conditions: prior non-clinical studies; cited from earlier work
# Chain of HERG (Q12809 whole entry): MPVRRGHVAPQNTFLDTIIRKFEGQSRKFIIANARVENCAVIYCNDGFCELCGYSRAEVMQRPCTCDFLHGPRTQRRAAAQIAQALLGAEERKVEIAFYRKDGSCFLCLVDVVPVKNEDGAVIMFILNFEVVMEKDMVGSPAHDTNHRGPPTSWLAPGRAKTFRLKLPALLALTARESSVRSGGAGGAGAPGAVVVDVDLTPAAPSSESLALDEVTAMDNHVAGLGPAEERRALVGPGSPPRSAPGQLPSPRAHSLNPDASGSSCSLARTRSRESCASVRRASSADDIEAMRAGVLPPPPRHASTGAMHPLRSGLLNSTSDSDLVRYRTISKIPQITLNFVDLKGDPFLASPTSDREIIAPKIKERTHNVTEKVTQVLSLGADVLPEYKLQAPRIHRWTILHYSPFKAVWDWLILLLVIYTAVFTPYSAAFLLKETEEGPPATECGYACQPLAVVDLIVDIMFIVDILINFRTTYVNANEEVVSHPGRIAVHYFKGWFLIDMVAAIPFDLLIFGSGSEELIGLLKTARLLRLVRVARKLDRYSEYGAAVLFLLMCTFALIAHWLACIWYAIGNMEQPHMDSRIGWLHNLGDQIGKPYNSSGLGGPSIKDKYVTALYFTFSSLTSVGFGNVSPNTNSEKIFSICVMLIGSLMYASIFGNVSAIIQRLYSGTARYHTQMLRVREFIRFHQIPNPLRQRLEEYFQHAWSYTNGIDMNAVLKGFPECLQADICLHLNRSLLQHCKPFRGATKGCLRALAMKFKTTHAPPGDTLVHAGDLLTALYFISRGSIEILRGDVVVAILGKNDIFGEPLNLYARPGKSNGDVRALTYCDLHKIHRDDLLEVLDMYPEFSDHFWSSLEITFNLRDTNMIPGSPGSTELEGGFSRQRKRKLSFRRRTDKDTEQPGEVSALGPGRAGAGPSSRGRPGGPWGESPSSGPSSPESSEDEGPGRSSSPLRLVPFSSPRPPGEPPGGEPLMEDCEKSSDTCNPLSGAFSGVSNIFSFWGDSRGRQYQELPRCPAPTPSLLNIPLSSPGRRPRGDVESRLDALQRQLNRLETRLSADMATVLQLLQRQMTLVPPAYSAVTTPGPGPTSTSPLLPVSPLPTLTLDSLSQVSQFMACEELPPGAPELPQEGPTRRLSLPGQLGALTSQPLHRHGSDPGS
# T1 sequence (P31652 whole entry): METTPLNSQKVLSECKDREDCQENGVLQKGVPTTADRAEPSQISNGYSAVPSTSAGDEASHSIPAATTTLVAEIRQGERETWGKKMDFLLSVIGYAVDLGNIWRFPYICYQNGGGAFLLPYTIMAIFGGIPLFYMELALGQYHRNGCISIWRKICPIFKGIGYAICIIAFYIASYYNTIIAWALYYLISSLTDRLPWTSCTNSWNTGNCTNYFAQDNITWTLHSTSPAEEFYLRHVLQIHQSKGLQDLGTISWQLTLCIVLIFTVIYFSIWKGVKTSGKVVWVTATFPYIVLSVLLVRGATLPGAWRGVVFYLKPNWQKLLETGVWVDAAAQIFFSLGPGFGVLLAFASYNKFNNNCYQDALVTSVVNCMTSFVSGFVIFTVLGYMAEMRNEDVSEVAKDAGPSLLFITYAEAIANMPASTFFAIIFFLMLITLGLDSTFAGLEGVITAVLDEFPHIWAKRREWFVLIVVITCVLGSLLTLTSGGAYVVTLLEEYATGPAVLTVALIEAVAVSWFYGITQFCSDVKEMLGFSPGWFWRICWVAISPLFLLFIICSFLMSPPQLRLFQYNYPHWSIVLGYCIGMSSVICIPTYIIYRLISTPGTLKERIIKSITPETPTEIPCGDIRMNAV
# T2 sequence (P31645 whole entry): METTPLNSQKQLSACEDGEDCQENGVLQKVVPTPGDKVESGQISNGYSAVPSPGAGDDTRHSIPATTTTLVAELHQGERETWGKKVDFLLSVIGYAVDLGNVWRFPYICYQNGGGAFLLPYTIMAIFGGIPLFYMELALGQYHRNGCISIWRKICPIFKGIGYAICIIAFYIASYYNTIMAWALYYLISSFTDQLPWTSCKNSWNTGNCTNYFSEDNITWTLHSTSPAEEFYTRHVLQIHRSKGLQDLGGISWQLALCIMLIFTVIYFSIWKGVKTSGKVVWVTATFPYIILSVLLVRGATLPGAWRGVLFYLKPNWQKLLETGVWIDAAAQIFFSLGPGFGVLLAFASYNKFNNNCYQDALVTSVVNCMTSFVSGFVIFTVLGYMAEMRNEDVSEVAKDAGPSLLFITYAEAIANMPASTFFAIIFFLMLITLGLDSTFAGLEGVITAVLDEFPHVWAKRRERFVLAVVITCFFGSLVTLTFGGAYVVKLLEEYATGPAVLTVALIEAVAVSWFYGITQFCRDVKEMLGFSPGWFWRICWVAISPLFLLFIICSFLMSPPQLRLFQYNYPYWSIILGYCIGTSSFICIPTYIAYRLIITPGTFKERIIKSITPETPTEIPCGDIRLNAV
# Chain of p-glycoprotein (P08183 whole entry): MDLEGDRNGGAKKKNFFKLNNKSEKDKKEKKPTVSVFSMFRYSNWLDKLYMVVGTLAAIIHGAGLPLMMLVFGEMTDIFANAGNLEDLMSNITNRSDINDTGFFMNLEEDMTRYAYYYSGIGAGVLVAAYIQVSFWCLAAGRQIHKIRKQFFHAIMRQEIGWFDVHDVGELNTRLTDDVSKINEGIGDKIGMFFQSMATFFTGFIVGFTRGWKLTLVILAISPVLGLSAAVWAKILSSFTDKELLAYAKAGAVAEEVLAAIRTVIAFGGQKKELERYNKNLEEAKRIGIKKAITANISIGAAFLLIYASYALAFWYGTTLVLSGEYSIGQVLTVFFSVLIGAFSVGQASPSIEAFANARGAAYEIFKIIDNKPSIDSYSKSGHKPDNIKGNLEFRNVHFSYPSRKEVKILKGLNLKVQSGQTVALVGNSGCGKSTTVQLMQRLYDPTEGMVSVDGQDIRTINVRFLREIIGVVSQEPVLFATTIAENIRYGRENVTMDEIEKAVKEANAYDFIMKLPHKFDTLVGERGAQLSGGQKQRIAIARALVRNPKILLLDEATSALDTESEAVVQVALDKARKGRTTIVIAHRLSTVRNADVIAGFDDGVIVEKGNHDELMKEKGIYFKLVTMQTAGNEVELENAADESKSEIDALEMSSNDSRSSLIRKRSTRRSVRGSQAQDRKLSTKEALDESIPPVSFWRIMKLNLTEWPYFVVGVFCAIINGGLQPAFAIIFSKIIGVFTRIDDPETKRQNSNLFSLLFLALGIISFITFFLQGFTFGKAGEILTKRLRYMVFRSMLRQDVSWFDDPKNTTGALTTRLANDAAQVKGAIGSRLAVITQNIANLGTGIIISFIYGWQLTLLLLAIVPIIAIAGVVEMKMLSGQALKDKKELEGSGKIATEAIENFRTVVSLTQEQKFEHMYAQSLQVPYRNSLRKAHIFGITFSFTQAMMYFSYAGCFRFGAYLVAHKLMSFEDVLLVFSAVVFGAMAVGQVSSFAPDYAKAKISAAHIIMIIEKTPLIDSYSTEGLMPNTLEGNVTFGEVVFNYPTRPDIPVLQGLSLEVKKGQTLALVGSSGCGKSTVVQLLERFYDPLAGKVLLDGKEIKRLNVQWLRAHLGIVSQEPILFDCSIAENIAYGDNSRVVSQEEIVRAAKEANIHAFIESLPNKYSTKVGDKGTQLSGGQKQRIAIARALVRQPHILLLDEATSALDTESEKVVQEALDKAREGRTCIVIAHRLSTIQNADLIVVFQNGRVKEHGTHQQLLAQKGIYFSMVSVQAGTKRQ
compound,measurement,setting,value
"CNCCC[C@](C#N)(c1ccc(OC)c(OC)c1)C(C)C [(R)-2-(3,4-dimethoxyphenol)-2-isopropyl-6-azaheptanitril]","mean terminal plasma concentration of (R)-2-(3,4-dimethoxyphenol)-2-isopropyl-6-azaheptanitril",[1]; R-D617 treated group,18.5 ng/mL
same,terminal plasma concentration of R-verapamil after R-D617 treatment,[1]; lower limit of quantification 1 ng/ml,< 1 ng/mL
same,R-verapamil measured in terminal plasma of the R-D617 treated group,[1]; result in words,no quantifiable R-verapamil
same,IC50,"[2]; Table 2-1, 5-HT uptake",240 nM
same,"% of Control Values, 1st",[2]; 1.0E−05 M,1.0%
same,"% of Control Values, 2nd",[2]; 1.0E−05 M,5.2%
same,"% of Control Values, Mean",[2]; 1.0E−05 M,3.1%
same,"% of Control Values, 1st",[2]; 1.0E−06 M,22.1%
same,"% of Control Values, 2nd",[2]; 1.0E−06 M,21.1%
same,"% of Control Values, Mean",[2]; 1.0E−06 M,21.6%
same,"% of Control Values, 1st",[2]; 1.0E−07 M,79.8%
same,"% of Control Values, 2nd",[2]; 1.0E−07 M,81.9%
same,"% of Control Values, Mean",[2]; 1.0E−07 M,80.8%
same,"% of Control Values, 1st",[2]; 1.0E−08 M,101.7%
same,"% of Control Values, 2nd",[2]; 1.0E−08 M,94.0%
same,"% of Control Values, Mean",[2]; 1.0E−08 M,97.9%
same,"% of Control Values, 1st",[2]; 3.0E−07 M,47.8%
same,"% of Control Values, 2nd",[2]; 3.0E−07 M,44.9%
same,"% of Control Values, Mean",[2]; 3.0E−07 M,46.3%
same,"% of Control Values, 1st",[2]; 3.0E−08 M,108.1%
same,"% of Control Values, 2nd",[2]; 3.0E−08 M,82.8%
same,"% of Control Values, Mean",[2]; 3.0E−08 M,95.4%
same,"% of Control Values, 1st",[2]; 3.0E−09 M,100.2%
same,"% of Control Values, 2nd",[2]; 3.0E−09 M,113.4%
same,"% of Control Values, Mean",[2]; 3.0E−09 M,106.8%
same,"% of Control Values, 1st",[2]; 3.0E−10 M,113.5%
same,"% of Control Values, 2nd",[2]; 3.0E−10 M,113.3%
same,"% of Control Values, Mean",[2]; 3.0E−10 M,113.4%
same,inhibition at the majority of the other receptors tested,[3],< 75%
same,mPAP (Mean +/− SEM),"[4]; measured 21 days after injection, untreated PAH control 36.0, sham 14.7",30.0 +/− 2.5 mmHg
same,Right Ventricle Weight (Mean +/− SEM),"[4]; wet weight, untreated PAH control 317.9, sham 167.4",288.7 +/− 13.4
same,% Inhibition of Control Specific Binding,"5-HT transporter (h); Table 1-1, test concentration 1.0E−05 M",100%
same,"% of Control Specific Binding, 1st","5-HT transporter (h); Table 1-2, 1.0E−05 M",−0.6%
same,"% of Control Specific Binding, 2nd","5-HT transporter (h); Table 1-2, 1.0E−05 M",0.8%
same,"% of Control Specific Binding, Mean","5-HT transporter (h); Table 1-2, 1.0E−05 M",0.1%
same,nH (Hill coefficient),5-HT transporter (h); Table 1-4,1.0
same,Ki,"5-HT transporter (h); Table 1-4, Cheng Prusoff",22 nM
same,"% of Control Specific Binding, 1st","5-HT transporter (h); Table 1-5, 1.0E−05 M",0.5%
same,"% of Control Specific Binding, 2nd","5-HT transporter (h); Table 1-5, 1.0E−05 M",0.2%
same,"% of Control Specific Binding, Mean","5-HT transporter (h); Table 1-5, 1.0E−05 M",0.3%
same,"% of Control Specific Binding, 1st","5-HT transporter (h); Table 1-5, 1.0E−06 M",5.9%
same,"% of Control Specific Binding, 2nd","5-HT transporter (h); Table 1-5, 1.0E−06 M",3.7%
same,"% of Control Specific Binding, Mean","5-HT transporter (h); Table 1-5, 1.0E−06 M",4.8%
same,"% of Control Specific Binding, 1st","5-HT transporter (h); Table 1-5, 1.0E−07 M",36.5%
same,"% of Control Specific Binding, 2nd","5-HT transporter (h); Table 1-5, 1.0E−07 M",32.5%
same,"% of Control Specific Binding, Mean","5-HT transporter (h); Table 1-5, 1.0E−07 M",34.5%
same,"% of Control Specific Binding, 1st","5-HT transporter (h); Table 1-5, 1.0E−08 M",83.3%
same,"% of Control Specific Binding, 2nd","5-HT transporter (h); Table 1-5, 1.0E−08 M",84.8%
same,"% of Control Specific Binding, Mean","5-HT transporter (h); Table 1-5, 1.0E−08 M",84.0%
same,"% of Control Specific Binding, 1st","5-HT transporter (h); Table 1-5, 3.0E−07 M",15.3%
same,"% of Control Specific Binding, 2nd","5-HT transporter (h); Table 1-5, 3.0E−07 M",13.1%
same,"% of Control Specific Binding, Mean","5-HT transporter (h); Table 1-5, 3.0E−07 M",14.2%
same,"% of Control Specific Binding, 1st","5-HT transporter (h); Table 1-5, 3.0E−08 M",66.6%
same,"% of Control Specific Binding, 2nd","5-HT transporter (h); Table 1-5, 3.0E−08 M",58.0%
same,"% of Control Specific Binding, Mean","5-HT transporter (h); Table 1-5, 3.0E−08 M",62.3%
same,"% of Control Specific Binding, 1st","5-HT transporter (h); Table 1-5, 3.0E−09 M",101.5%
same,"% of Control Specific Binding, 2nd","5-HT transporter (h); Table 1-5, 3.0E−09 M",88.4%
same,"% of Control Specific Binding, Mean","5-HT transporter (h); Table 1-5, 3.0E−09 M",94.9%
same,"% of Control Specific Binding, 1st","5-HT transporter (h); Table 1-5, 3.0E−10 M",104.1%
same,"% of Control Specific Binding, 2nd","5-HT transporter (h); Table 1-5, 3.0E−10 M",102.0%
same,"% of Control Specific Binding, Mean","5-HT transporter (h); Table 1-5, 3.0E−10 M",103.1%
same,IC50,5-HT transporter (h); read-out: IC50 for inhibition of binding at the serotonin transporter,47 nM
same,inhibition of the serotonin transporter,5-HT transporter (h); single high concentration 1×10^−5M,100%
"CNCCCC(C#N)(c1ccc(OC)c(OC)c1)C(C)C [D-617, 2-(3,4-dimethoxyphenol)-2-isopropyl-6-azaheptanitril]",CYP-mediated metabolism: substrate / inhibitor,CYP,substrate for but not a potent inhibitor of
same,cardiovascular potency compared with verapamil,[5],2.6%
same,p-glycoprotein transport: substrate / inhibitor,p-glycoprotein,"substrate for, but not an inhibitor of"
same,block of HERG-induced currents,HERG,does not block
"CN(C)CCCN1c2ccccc2CCc2ccccc21 [imipramine, reference compound]",nH (Hill coefficient),5-HT transporter (h),0.9 and 1.2
COc1ccc(CCNCCCC(C#N)(c2ccc(OC)c(OC)c2)C(C)C)cc1OC (stereo not drawn) [nor-verapamil],cardiovascular potency compared with verapamil,[5],21.9%
